Assay [1] has as its target T1, SpCas9 (Streptococcus pyogenes serotype M1, UniProt Q99ZW2). Put plainly: eGFP disruption assay, SpCas9, U2OS.eGFP.PEST cells. Format: cell-based. The conditions noted are these: for Activity in eGFP-disruption assay: result in words, relative to BRD7586; for Normalized Z rep1 / Z score Rep1 / % GFP+, Rep 1: replicate 1; for SpCas9 eGFP disruption Rep1: replicate 1, raw readout; for Normalized Z rep2 / Z socre Rep2 / % GFP+, Rep 2: replicate 2; for SpCas9 eGFP disruption Rep2: replicate 2, raw readout. The essentials:
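Rescue of eGFP signal lost through Cas9-induced NHEJ indels serves as the inhibition read-out, after 24 h compound exposure (20 μM for hits, variable for dose-response). Editing was delivered by nucleofection into U2OS.eGFP.PEST cells as SpCas9/gRNA plasmids (300/30 ng) or RNP (10/12 pmol). Toxic and autofluorescent compounds were excluded.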

In assay [2] the target is T1, SpCas9. Put plainly: HiBiT knock-in assay, SpCas9, HEK293T cells. The settings on record: for Activity in HiBiT knock-in assay: result in words, relative to BRD7586. It counts as cell-based. The source says:
Primary and secondary screening. The primary screen assayed a selection of unique chemical scaffolds derived from commercially available compounds and known bioactive molecular libraries (Table 7). Auto-fluorescent compounds were removed by a counter screen. Overall, the CAA was used to assay 122,409 small molecules with over 2,500 unique chemical scaffolds (FIG. 64F, Table 7). Of these compounds, 547 were selected as hits (Z score >3 in both replicates) for testing in orthogonal cell-based secondary assays. Hits were tested in duplicate in an eGFP disruption assay, wherein U2OS.eGFP.PEST cells^33 transfected with SpCas9 plasmid and eGFP-targeting gRNA plasmid were incubated with 20 μM of the compounds. In this assay, any compound that inhibited SpCas9 would rescue the loss of eGFP fluorescence. Here, toxic and auto-fluorescent compounds with a high GFP signal in cells were removed as false positives. […] Next, Applicants tested the 15 compounds in a luminescence-based gain-of-signal HiBiT knock-in assay, which involves SpCas9-mediated homology-directed tagging of GAPDH with a short peptide that luminesces upon complementation with a subunit derived from nanoluciferase.^34 Complementarily, the eGFP-disruption assay is fluorescence-based and involves error-prone DNA repair. As a counter-screen to remove false positives caused by cell death (viability <80%), the cell viability was measured after incubation.
Approximately 400,000 HEK293T cells were nucleofected with 400 ng of SpCas9 plasmid, 40 ng of GAPDH-targeting gRNA plasmid, and 40 pmol of single-strand oligodeoxynucleotide (ssODN) using SF Cell Line 4D-Nucleofector X Kit (Lonza) following the pulse program of DS-150. For RNP-based genome editing, 10 pmol of Cas9 and 12 pmol of gRNA were mixed and incubated for 5 min. Then, 20 pmol of ssODN was added. Cells were nucleofected with the resulting mixture using the same pulse program. Cells were then transferred to a 96-well plate at the density of 35,000 cells per well, and incubated with indicated amount of compounds for 24 h. Cell viability was measured using PrestoBlue reagent (Thermo) with a SpectraMax M5 (Molecular Devices) at the excitation and emission wavelength of 544 nm and 590 nm, respectively. Next, luminescence measurement was performed using the Nano-Glo HiBiT Lytic Detection System (Promega) according to the manufacturer's protocol with an EnVision Multilabel Plate Reader (PerkinElmer) at the integration time of 0.5 s per well. The resulting luminescence signals were normalized based on the cell viability.^34
(In general: HiBiT is a short tag that completes a luciferase, so light tracks the accessible tagged protein.)

Assay [3] has as its target T1, SpCas9. Briefly: Strand displacement assay (SDA) / cumulative activity assay (CAA), SpCas9 primary screen. It counts as biochemical. The settings on record: Primary Screen (150 min); for Normalized Z score 1: replicate 1; for Normalized Z score 2: replicate 2. In short, it runs like this:
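SpCas9:gRNA RNP in 20 mM Tris-HCl pH 7.5, 100 mM KCl, 5 mM MgCl2 was used at 10 nM (2× stock) with Alexa Fluor 647-labelled substrate and excess quencher strand (1 nM and 5 nM, 2× stocks). Fluorescence was read after 2.5 h at 37 °C, where cleavage lets the quencher strand anneal.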

Where [4] appears, read: Cas9 = lower control, Ctrl = upper control.
[5] abbreviates: normalized, lower control about 0, upper control about 1.

T1 sequence (Q99ZW2 whole entry): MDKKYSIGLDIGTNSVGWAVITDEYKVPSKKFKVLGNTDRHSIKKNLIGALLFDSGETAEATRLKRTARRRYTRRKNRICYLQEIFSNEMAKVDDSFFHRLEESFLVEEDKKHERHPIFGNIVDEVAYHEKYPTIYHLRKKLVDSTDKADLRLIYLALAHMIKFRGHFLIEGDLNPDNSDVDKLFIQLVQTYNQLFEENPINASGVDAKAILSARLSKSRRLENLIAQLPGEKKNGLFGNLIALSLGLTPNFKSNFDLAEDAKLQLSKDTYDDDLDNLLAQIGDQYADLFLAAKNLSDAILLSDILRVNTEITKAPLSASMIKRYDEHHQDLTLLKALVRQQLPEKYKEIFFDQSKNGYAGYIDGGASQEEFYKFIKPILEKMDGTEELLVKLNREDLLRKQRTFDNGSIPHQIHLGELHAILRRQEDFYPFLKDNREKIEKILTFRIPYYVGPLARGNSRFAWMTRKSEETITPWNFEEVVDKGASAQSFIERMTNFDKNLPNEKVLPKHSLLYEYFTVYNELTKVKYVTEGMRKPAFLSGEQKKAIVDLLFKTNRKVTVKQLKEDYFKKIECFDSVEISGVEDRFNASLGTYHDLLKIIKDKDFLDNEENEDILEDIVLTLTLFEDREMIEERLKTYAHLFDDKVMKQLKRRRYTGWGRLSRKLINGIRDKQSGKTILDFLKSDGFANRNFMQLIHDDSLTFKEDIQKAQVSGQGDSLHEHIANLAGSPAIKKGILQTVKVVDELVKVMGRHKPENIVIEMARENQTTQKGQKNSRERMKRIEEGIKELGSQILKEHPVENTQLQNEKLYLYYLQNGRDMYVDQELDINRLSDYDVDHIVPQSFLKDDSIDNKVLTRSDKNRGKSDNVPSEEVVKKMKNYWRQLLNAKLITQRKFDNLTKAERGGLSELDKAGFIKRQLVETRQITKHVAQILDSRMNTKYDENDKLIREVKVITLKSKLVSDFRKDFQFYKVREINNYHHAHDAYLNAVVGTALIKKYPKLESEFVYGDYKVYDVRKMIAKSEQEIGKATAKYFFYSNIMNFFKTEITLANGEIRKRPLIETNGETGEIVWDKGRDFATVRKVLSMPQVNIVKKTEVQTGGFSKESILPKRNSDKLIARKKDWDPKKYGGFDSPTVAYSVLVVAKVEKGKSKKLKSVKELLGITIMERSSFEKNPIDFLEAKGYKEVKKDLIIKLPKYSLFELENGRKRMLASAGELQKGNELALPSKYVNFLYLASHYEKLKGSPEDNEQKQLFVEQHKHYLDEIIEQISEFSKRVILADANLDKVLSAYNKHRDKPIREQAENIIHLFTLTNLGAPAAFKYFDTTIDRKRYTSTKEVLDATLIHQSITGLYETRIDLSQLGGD

On to `O=C(CCSc1ccc(Cl)cc1)Nc1nc(-c2ccc(Br)cc2)cs1` [BRD0033], for which the “Activity in eGFP-disruption assay” value on SpCas9 [1] was “inactive”. Besides, at SpCas9 [2], the “Activity in HiBiT knock-in assay” value is “inactive”.

For `COc1ccc(Cc2nn3c(-c4cccnc4)nnc3s2)cc1OC` [Compound D727-0069], on SpCas9 [1], the eGFP disruption-% inhibition worked out at 24.03%, the “Normalized Z rep1” value was −0.31, the “Z score Rep1” value is listed as −2.26 and the “SpCas9 eGFP disruption Rep1” value is recorded as 59.543. At SpCas9 [1], the “Normalized Z rep2” value is given as −0.17, the “Z socre Rep2” value was −1.55 and the “SpCas9 eGFP disruption Rep2” value was 58.398. The compound further gave a Hibit assay-% inhibition on SpCas9 [2] of 8.56%.

For `COc1ccc(Cc2nnc3sc(Cc4ccc(OC)c(OC)c4)nn23)cc1` [Compound D727-0165], on SpCas9 [1], the eGFP disruption-% inhibition was 25.03%, the “Z score Rep1” value is recorded as 1.09 and the “Z socre Rep2” value was −0.43. In addition, on SpCas9 [1] (setting [4]), the “SpCas9 eGFP disruption Rep1” value came out at 70.62 and the “SpCas9 eGFP disruption Rep2” value is recorded as 61.783. Also, at SpCas9 [1] (setting [5]), the “Normalized Z rep1” value was found to be 0.15 and the “Normalized Z rep2” value was −0.05. For the same compound, the Hibit assay-% inhibition at SpCas9 [2] is 22.01%.

As for `c1ccc(-c2nnc3sc(-c4cc5ccccc5o4)nn23)nc1` [Compound D727-0535], at SpCas9 [1], the eGFP disruption-% inhibition is on record as 18.61%, the “Normalized Z rep1” value is listed as −0.14, the “Z score Rep1” value was −0.99 and the “SpCas9 eGFP disruption Rep1” value turned out to be 63.743. Also, at SpCas9 [1], the “Normalized Z rep2” value is −0.22, the “Z socre Rep2” value is on record as −2.07 and the “SpCas9 eGFP disruption Rep2” value stood at 56.828. Besides, the Hibit assay-% inhibition on SpCas9 [2] amounted to 18.11%.

As for `O=C(CCSc1ccc(Cl)cc1)Nc1nc(-c2ccncc2)cs1` [Compound F2537-0908], at SpCas9 [1], the “Activity in eGFP-disruption assay” value is reported as “significantly lower inhibitory activity”. The “Activity in HiBiT knock-in assay” value on SpCas9 [2] was “significantly lower inhibitory activity”.

`O=C(CCS(=O)(=O)c1ccccc1)Nc1nc(-c2ccncc2)cs1` [Compound G786-1264]: at SpCas9 [3], the “Average Normalized Z score” value turned out to be 0.06, the “avg z score primary” value amounted to 5.95, the “Normalized Z score 1” value is reported as 0.06 and the “Normalized Z score 2” value turned out to be 0.06. Moreover, at SpCas9 [1], the eGFP disruption-% inhibition is given as 41.72%, the “Z score Rep1” value was found to be 3.83 and the “Z socre Rep2” value is reported as 9.69. Besides, at SpCas9 [1] (eGFP assay), the “% GFP+, Rep 1” value was determined as 82.72%; the “Z score Rep1” value came out at 3.83; the “% GFP+, Rep 2” value is recorded as 83.95%. On SpCas9 [1] (setting [4]), the “SpCas9 eGFP disruption Rep1” value is 82.717 and the “SpCas9 eGFP disruption Rep2” value came out at 83.951. In addition, on SpCas9 [1] (setting [5]), the “Normalized Z rep1” value was determined as 0.37 and the “Normalized Z rep2” value was found to be 0.42. In addition, the Hibit assay-% inhibition on SpCas9 [2] worked out at 72.63%.

Regarding `O=C(CCS(=O)(=O)c1ccc(Cl)cc1)Nc1nc(-c2ccccn2)cs1` [Compound G786-1324], on SpCas9 [3], the “Average Normalized Z score” value is given as 0.05, the “avg z score primary” value is given as 4.44, the “Normalized Z score 1” value stood at 0.05 and the “Normalized Z score 2” value turned out to be 0.04. On SpCas9 [1], the eGFP disruption-% inhibition is reported as 32.94%, the “Z score Rep1” value is 3.12 and the “Z socre Rep2” value came to 4.86. In addition, at SpCas9 [1] (eGFP assay), the “% GFP+, Rep 1” value is listed as 81.43%; the “Z score Rep1” value is reported as 3.12; the “% GFP+, Rep 2” value was 79.94%. In addition, on SpCas9 [1] (setting [4]), the “SpCas9 eGFP disruption Rep1” value is 81.427 and the “SpCas9 eGFP disruption Rep2” value came to 79.939. Moreover, on SpCas9 [1] (setting [5]), the “Normalized Z rep1” value stood at 0.30 and the “Normalized Z rep2” value is on record as 0.21. The compound further displayed a Hibit assay-% inhibition on SpCas9 [2] of 94.5%.
